Patent US20250188080A1, “IMIDAZOLONYLQUINOLINE COMPOUNDS AND THERAPEUTIC USES THEREOF” (Merck Patent GmbH, priority 2019, published 2025)

Experiments:
[1] = Non-sink dissolution in FaSSIF (pH 6.5); format: physicochemical; conditions: FaSSIF buffer solution (pH 6.5), FIG. 9
Protocol: Non-sink dissolution profiles for solid-state forms were acquired using shaked-flask method with excess solid material in FaSSIF medium (pH 6.5) with time-resolved sampling for determination of dissolved quantities of API.
Approx. 10-20 mg of solid sample were weighed into glass vials. 7 ml of respective medium (prewarmed to 37° C.) were added and the suspension was shaken at 450 rpm at 37° C. After 5 min, 10 min, 15 min, 30 min, 60 min, 120 min, 24 h and 48 h, […] was withdrawn and filtered through a 0.2 μm syringe filter. Clear filtrate was analysed by HPLC after suitable dilution to measure the amount of compound/form (may also be referred to as API) dissolved.
FaSSIF: 3 mM sodium taurocholate; 0.75 mM lecithin; 105.9 mM sodium chloride; 28.4 mM monobasic sodium phosphate and 8.7 mM sodium hydroxide, pH 6.5
Levels of dissolved compound/form were analysed by HPLC, with the following conditions: • Column: Chromolith RP-18e 100-3 mm • Solvent A: water/formic acid (999:1; v/v) • Solvent B: acetonitrile/formic acid (999:1; v/v) • Injection volume: 5 μL • Column temperature: 37° C. • HPLC-Gradient: […]

[2] = Dynamic vapor sorption (DVS) water uptake; format: physicochemical
Protocol: DCS water vapour sorption isotherms were acquired on DVS instrument with microbalance and incubator (DVS-Intrinsic, Surface Measurement Systems, SMS). Powder samples were accurately weighed into disposable Al pans and placed on the sample position of the DVS instrument. A nitrogen overall follow rate of 200 mL/min (combined dry and humid stream) was used for humidification. […] For all RH steps, an equilibrium condition of dm/dt≤0.0005 wt %/min was used, with a minimum RH step time of 10 minutes and a maximum RH step time (timeout) of 360 minutes.

| Initial dissolution rate compared with parent Compound 1 [1] | SMILES | other results |
| --- | --- | --- |
| faster initial dissolution rate | COc1cc2ncc3c(c2cc1-c1cn(C)nc1C)n(-c1c(F)cncc1OC)c(=O)n3C.O=S(=O)(O)CCS(=O)(=O)O [Compound 1 edisylate] |  |
| faster initial dissolution rate | COc1cc2ncc3c(c2cc1-c1cn(C)nc1C)n(-c1c(F)cncc1OC)c(=O)n3C.O=S(=O)(O)c1ccc2ccccc2c1 [Compound 1 napsylate] |  |
| faster initial dissolution rate | COc1cc2ncc3c(c2cc1-c1cn(C)nc1C)n(-c1c(F)cncc1OC)c(=O)n3C.O=C(O)/C=C/C(=O)O [Compound 1 fumarate] | Hygroscopic properties [2]: absence of hygroscopic properties |
|  | COc1cc2ncc3c(c2cc1-c1cn(C)nc1C)n(-c1c(F)cncc1OC)c(=O)n3C [Form A3] | Water adsorption (DVS), in words ([2]; up to a relative humidity of about 70%, 25° C.): very little water adsorption |
|  | COc1cc2ncc3c(c2cc1-c1cn(C)nc1C)n(-c1c(F)cncc1OC)c(=O)n3C [Form A2] | Water adsorbed (DVS) ([2]; up to a relative humidity of 100%, 25° C.): < 2% |
